This is an account of results in patent US9598448B2, “Osmium (II) arene imino anti-cancer complexes” (University of Warwick, priority 2010, dated 2017).

“Also recorded” adds a separate entry of the source.

The test system of data set [1] is Balb/c immunodeficient nude mice bearing HCT-116 tumours. Nature of the data set: Evaluation of in vivo toxicity in nude mouse HCT-116 xenograft model. Conditions: i.v. day 0, doses from 2 up to 40 mg kg^−1, monitored 15 days. As to the method:
Female Balb/c immunodeficient nude mice (Harlan, Loughborough, UK) aged 6-12 weeks were used. Mice received Harlan 2018 diet (Harlan) and water ad libitum. Mice were kept in cages in an air-conditioned room with regular alternating cycles of light and darkness. All animal procedures were carried out under a project license issued by the UK Home Office and UKCCCR guidelines (Workman P, Twentyman P, Balkwill F et al: United Kingdom Co-ordinating Committee on Cancer Research (UKCCCR) Guidelines for the Welfare of Animals in Experimental Neoplasia (Second Edition). Br J Cancer 77: 1-10, 1998) were followed throughout.
HCT-116 was used in the study. Tumours were excised from a donor animal, placed in sterile physiological saline containing antibiotics and cut into small fragments of approximately 2 mm^3. Under brief general inhalation anaesthesia, fragments were implanted in the […] abdominal flank of each mouse using a trocar. Once the tumours could accurately be measured using callipers (mean tumour volume of approximately 50 mm^3), treatment commenced. Complexes 3 and 6 were solubilised in 10% DMSO; 5% Tween-80; 85% saline and were administered intravenously to groups of 2 mice on day 0. Animals were weighed frequently and monitored for any deleterious effects over a period of 15 days.

For data set [2], the system named is microtubules in A2780 human ovarian cancer cell line. Nature of the data set: Immunofluorescence of microtubules by confocal microscopy. The class given is cell-based. Conditions: 24 h treatment, 1 μM. As to the method: A2780 Cells were seeded on Lab-Tek™ Chamber Slides (Thermo Scientific Nunc) 10,000 cells/chamber, after 24 h incubation, osmium compound [Os(η^6-bip)(2-F-Azpy)I]PF6 at different concentrations were added and incubate for another 24 h. Cells were fixed with 4% formaldehyde in PBS (20 min, 310 K), then rinsed with PBS (3×2 mL×2 min), and permeabilized with 0.1% Triton X-100 solution (PBS solution) for 15 min at ambient temperature. The cells were blocked with blocking buffer (2 mg/mL BSA, overnight at […]), and then, the cell monolayers were incubated (1 h, 310 K) with monoclonal anti-α-tubulin-Alexa 488 (4 μg/mL) (Invitrogen Molecular Probles, Catalog No. 32-2588). After the incubation, the cells were washed with PBS and the immunofluorescence was detected using a Leica SP5 fluorescence confocal microscope, with 100× objective.

The next data set has as its system A549 non-small cell lung. As to the kind of experiment: MTT growth inhibition assay, A549. The note with it: 96 h. The data set is classed as cell-based, human. As to the method: (§1) Tumor cell growth inhibition was assessed using the MTT assay.^13 2×10^3 cells were inoculated into a 96-well plate and incubated overnight at 37° C. in a humidified atmosphere containing 5% CO2. Complexes were solubilised in DMSO as above, and then diluted in complete cell culture medium to give a broad range of concentrations. Cisplatin was included in the screen as a comparator. Medium was removed from each well and replaced with complex or control solutions, and the plates then incubated for a further 96 hours. After 96 h culture medium was removed and 200 μL of 0.5 mg mL^−1 MTT solution (Sigma) in complete medium added to each well. Following further 4 h incubation, the solution was removed from each well and 150 μL of DMSO (Sigma) added to solubilise the formazan crystals resulting from MTT conversion. Absorbance values for the resulting solutions were read at 550 nm on a microplate reader and cell survival calculated as the absorbance of treated cells divided by the control. Results were expressed in terms of IC50 values (i.e. concentration of compound required to kill 50% of cells) and all experiments were performed in triplicate.
(§2) The following human cancer cell lines were cultured in RPMI 1640 cell culture medium supplemented with 1 mM sodium pyruvate, 2 mM L-glutamine and 10% fetal bovine serum (all from Sigma): A549 non-small cell lung, HCT-116 colon, MCF-7 breast, PC-3 prostate (all from LGC Promochem, Teddington, UK), A2780/cis ovarian (cisplatin-resistant) and RT-112 bladder (both from ECACC, Salisbury, UK).

The test system of another data set is PC-3 prostate. Nature of the data set: MTT growth inhibition assay, PC-3. The class given is cell-based, human. Conditions: 96 h. As to the method:
as §1, §2
For orientation: Tetrazolium dyes change colour on reduction, which living cells bring about.

The test system of another data set is Leukemia HL-60 (TB). As to the kind of experiment: NCI 60-cell line screen, HL-60 (TB). The data set is classed as cell-based, human. Conditions: 48 h. As to the method: (§3) The cells were treated for 48 h at five concentrations ranging from 0.01 to 100 μM. Three endpoints were calculated: GI 50 (the concentration inhibits cell growth by 50%): […]
A further data set deals with RT-112 bladder. As to the kind of experiment: MTT growth inhibition assay, RT-112. The class given is cell-based, human. The note with it: MTT, 96 h. As to the method: as §1, §2
Data set [3] has as its system human tumor 60-cell line panel. As to the kind of experiment: NCI/DTP human tumor 60-cell line panel screen. The note with it: NCI 60-cell line panel, MG-MID, 48 h. The class given is cell-based. As to the method:
The cells were treated for 48 h at five concentrations ranging from 0.01 to 100 μM. Three endpoints were calculated: GI 50 (the concentration inhibits cell growth by 50%):
TGI (the concentration inhibits cell growth by 100%)
LC 50 (the concentration kills original cells by 50%)
MG-MID (full-panel mean-graph midpoint).

A further data set relates to HCT-116 colon. As to the kind of experiment: MTT growth inhibition assay, HCT-116. The class given is cell-based, human. Conditions: 96 h. As to the method: as §1, §2
The test system of data set [4] is A2780/cis ovarian (cisplatin-resistant). Nature of the data set: MTT growth inhibition assay, A2780/cis. The data set is classed as cell-based, human. The note with it: 96 h. As to the method:
as §1, §2

Another data set has as its system MCF-7 breast. Nature of the data set: MTT growth inhibition assay, MCF-7. Conditions: 96 h. The data set is classed as cell-based, human. As to the method:
as §1, §2

For data set [5], the system named is HCT-116 colon adenocarcinoma s.c. xenograft model. Nature of the data set: In vivo efficacy in HCT-116 s.c. xenograft model.
The next data set has as its system Leukemia MOLT-4. As to the kind of experiment: NCI 60-cell line screen, MOLT-4. The class given is cell-based, human. Conditions: Leukemia MOLT-4, 48 h. As to the method: as §3
In the next data set the test system is colon cancer OoLO 205. Nature of the data set: NCI 60-cell line screen, colon cancer line. The class given is cell-based, human. The note with it: colon cancer OoLO 205, 48 h. As to the method: as §3
In another data set the test system is tubulin. Nature of the data set: Tubulin polymerization assay. The note with it: Osmium Compounds at 10 μM; 37° C., 60 min. The class given is biochemical. As to the method: To follow the anticancer mechanism indicated by COMPARE, We have investigated whether osmium complexes can interacted directly with tubulin.
A Cytoskeleton tubulin polymerization assay kit (catalog no BK004) was used in the tubulin polymerization study. Briefly, 10 μL of general tubulin buffer (80 mM PIPES, pH 6.9, 2 mM MgCl2, and 0.5 mM EGTA) containing osmium compound, colchicine or taxol was pipetted into the prewarmed 96 well microplate. Tubulin (defrosted to room temperature from −80° C. and then placed on ice before use) was diluted with tubulin polymerization buffer with 1 mM GTP to a final concentration of 4 mg mL^−1. Diluted tubulin (100 μL) was added into the wells containing osmium compound, colchicine or taxol. Diluted tubulin (100 μL) mixed with general tubulin buffer (10 μL) served as control. The absorbance at 340 nm was read immediately with a Tecan microplate reader.

Where [6] appears, read: 40.0 mg kg^−1, single intravenous injection.

Turning to “[(η^6-p-cym)Os(Azpy-NMe2)I]PF6 [Complex 6]”, the “toxicity / deleterious effects” value in data set [1] is on record as “no evident toxicity; also recorded: negligible deleterious effects”. In addition, the “inhibition of microtubule formation in cells” value in data set [2] is recorded as “inhibition forming microtubules were observed”. Also, the IC50 in the data set with A549 non-small cell lung was less than 300 nM; with PC-3 prostate it was 600 nM; in the data set on RT-112 bladder it was less than 300 nM; in the data set with HCT-116 colon, less than 300 nM; in data set [4], less than 300 nM; in the data set on MCF-7 breast it was 79 nM. Besides, the GI50 with Leukemia HL-60 (TB) is less than 50 nM; in data set [3], 280 nM; with Leukemia MOLT-4, less than 50 nM; in the data set on colon cancer OoLO 205, less than 50 nM. The substance further returned a 50% lethal concentration (LC50) in data set [3] of 6300 nM. This substance displayed a total growth inhibition concentration (TGI) in data set [3] of 1170 nM. For the same substance, in [5] (setting [6]), the “Maximum % weight loss” value was determined as 8%. For the same substance, the “Median tumour doubling time” value in data set [5] (setting [6]) was 6.2 days. Besides, the “day of maximum % weight loss” value in data set [5] (setting [6]) was 1 days. In addition, the toxicity result in data set [5] (single i.v. 40 mg/kg) was “negligible toxicity”. Also, the tumour growth delay entry in data set [5] (single i.v. 40 mg/kg, compared to the untreated control (p<0.01)) was “statistically significant tumour growth delay”. In addition, in the data set with tubulin, the “Inhibition of Tubulin Polimerziation” value was determined as 28.6%.

Usually IC50 stands for the concentration at which inhibition is half-maximal. By GI50 is commonly meant the concentration that inhibits growth by half. A lower GI50 goes with more potent growth inhibition. Usually LC50 stands for the concentration lethal to half of the exposed cells or organisms. Read a low LC50 as a more lethal substance. One may read the TGI as the concentration giving total growth inhibition. Low readings indicate greater sensitivity of the cells, high ones lower sensitivity of the cells.
